Experimental data: patent US20240293318A1, “CLEAVABLE LINKER-CONTAINING IONIZABLE LIPIDS AND LIPID CARRIERS FOR THERAPEUTIC COMPOSITIONS” (Flagship Pioneering Innovations VII, LLC, priority 2023, published 2024)

Tests used:
[1] = LNP size and polydispersity index by dynamic light scattering (DLS); format: physicochemical; details: hEPO mRNA, Lipid:Cholesterol:DSPC:PEG-2k 50:38.5:10:1.5, N:P 6
From the text: (§1) Various lipid nanoparticle compositions comprising a nucleic acid payload are characterized by a variety of methods. For example, dynamic light scattering (DLS) is used to determine particle sizes (Wyatt Dynapro Platereader 111). In addition, instruments such as the Zetasizer Nano ZS (Malvern Instruments Ltd) are used to measure multiple physical properties of a lipid nanoparticle composition, such as particle size, polydispersity index (PDI), and zeta potential. Fluorescence-based assays are used to determine the efficiencies of nucleic acid encapsulation in the lipid nanoparticles. Fluorescence-based assays are used to determine the “apparent pKa” of the lipid nanoparticles. Both fluorescence assays are evaluated on a Varioskanlux plate reader (ThermoScientific).
After formulation and processing of the lipid nanoparticle compositions, the Z-average size of lipid nanoparticle composition are assayed by dynamic light scattering (DLS) (e.g., using a Wyatt Dynapro Platereader III or Malvern Zetasizer ZS). Briefly, an aliquot of 2 uL of the processed nanoparticle composition mixture (at an RNA concentration of approximately 0.5 mg/mL) is diluted into 50 uL phosphate buffered saline (0.1×PBS) and loaded into a 384 well plate. The sample is then analyzed to determine nanoparticle size.
(§2) LNPs were characterized by dynamic light scattering (DLS) measurement for measuring its hydrodynamic radius and polydispersity index (PDI). Encapsulation efficiency (EE %) and total RNA concentration were quantitated using a fluorescence based Ribogreen assay.

[2] = Zeta potential assay of LNPs; format: physicochemical; details: LNP, hEPO mRNA, Lipid:Cholesterol:DSPC:PEG-2k 50:38.5:10:1.5, N:P 6
From the text: as §1
A Zetasizer Nano ZS (Malvern Instruments Ltd) is used to determine the zeta potential of the nanoparticle compositions. Briefly, a 5 uL aliquot of an approximately 0.5 mg mRNA/mL sample is diluted into 800 uL 0.1×PBS. This sample is then transferred to a disposable conducting cuvette and the zeta potential is measured.

[3] = Encapsulation efficiency, fluorescence based Ribogreen assay; format: physicochemical; details: LNP, hEPO mRNA, Lipid:Cholesterol:DSPC:PEG-2k 50:38.5:10:1.5, N:P 6
Method: For lipid nanoparticle formulations containing an RNA, a QUANTIT™ RIBOGREEN® RNA assay (Invitrogen Corporation) is used to evaluate the encapsulation of RNA within the lipid nanoparticle formulation.
The samples are diluted to ˜10 ug/ml in TE buffer. In a 96 well plate, 50 ul of the diluted sample is added to 50 uL TE buffer in duplicates and 20 uL of diluted sample is added to 80 uL Triton X buffer (2% triton in TE buffer) in duplicates. The plate is incubated for 10 minutes at room temperature. Next, RIBOGREEN® is diluted 1:200 in TE BUFFER, and 100 uL is added to each sample well. The fluorescence intensity is measured using a fluorescence plate reader (e.g., Varioskanlux, ThermoScientific) at an excitation wavelength of about 480 nm and an emission wavelength of about 520 nm. The encapsulation efficiency can be determined by using the percentage ratio of non-encapsulated RNA (TE sample) over the total RNA (TX sample), then subtracting from 100 to find the percentage of encapsulated RNA amount.
as §2

[4] = Apparent pKa of LNPs (TNS assay); format: physicochemical; details: LNP, hEPO mRNA, Lipid:Cholesterol:DSPC:PEG-2k 50:38.5:10:1.5, N:P 6
From the text: as §1
The apparent pKa of lipid nanoparticle composition is measured using a 6-(p-Toluidino)-2-naphthalenesulfonic acid (TNS) assay. Briefly, lipid nanoparticles (10 uL of approximately 0.5 mg mRNA/mL) and TNS probe (40 uL of 1 mM stock) are added to 750 uL of TNS buffer (25 mM citric acid, 20 mM sodium phosphate, 150 mM NaCl, and 20 mM ammonium acetate), at a pH ranging from 2 to 10. 20 uL of each sample are added to 80 uL of buffer at each pH in a 96-well plate. The plate is incubated for 10 minutes, and the fluorescence signal is measured by means of a spectrofluorometer (Varioskanlux, ThermoScientific) with excitation/emission settings of λex=321 nm, and λem=445 nm. The apparent pKa of the nanoparticle composition is determined by deriving the pH at which 50% of the pH 2 fluorescent signal is present. All datapoints are normalized to the fluorescent signal at pH 2.

C57BL/6 female mice = test: In vivo hEPO expression of hEPO mRNA LNPs, serum ELISA; details: LNP 50:38.5:10:1.5, N:P 6, 0.2 mg/kg hEPO mRNA, tail vein injection, blood serum 6 h post-administration
Method: In this example, messenger RNA molecules encoding hEPO proteins were formulated in lipid nanoparticles for delivery in vivo. The lipid nanoparticle (LNP) formulations comprised of a lipid composition of ionizable lipid: helper lipid: cholesterol. DMG-PEG2k at 50:10:38.5:1.5 mol %. The lipid mixture in ethanol was mixed with hEPO mRNA in RNA acidifying buffer (10 mM citrate, pH 4) at an ionizable-lipid-nitrogen-to-RNA-phosphate ratio (N:P) of 6 using a microfluidic device (Precision NanoSystems, Inc.) at a combined flow rate of 10 mL/min (7.5 mL/min for aqueous buffer, RNA and 2.5 mL/min for ethanol, lipid mix). The resulting particles were neutralized by buffer exchange into Dulbecco's phosphate buffer solution via PD-10 desalting column. The neutralized particles were concentrated using 100 kDa AMICON® Ultra centrifugal filters and sterile filtered using 0.2 um syringe filters. Samples were then characterized and diluted as needed (3 replicates).
The in vivo studies were performed in C57BL/6 female mice at 6 to 8 weeks weighing in at approximately 20 g. The LNPs formulated with different ionizable lipids at 0.2 mg/kg of hEPO mRNA were administered by tail vein injection and animals were euthanized at 6 h post-administration for blood serum sample collection. The hEPO levels from the samples were analyzed and cross-compared by enzyme-linked immunoassay (ELISA) according to manufacturer's protocol. The hEPO expression levels for each of the LNPs was compared to a control LNP comprising SM102 (DC Chemicals Cat. No. DC52025). (FIG. 1).

Compound: CCCCCCCCCCCOC(=O)CCCCCN(CCO)CCCCCCCOP(=O)(NCCCCCCCCC)OCCCCCCCCC (centres unmarked) [Lipid 7]
- PDI [1]: 0.296
- Size [1]: 145.3 nm
- Zeta [2]: −2.0 mV
- EE [3]: 97.2%
- pKa [4]: 6.9
- hEPO (C57BL/6 female mice): 80.47 ng/mL

Compound: CCCCCCCCCOP(=O)(NCCCCCN(CCO)CCCCCCCC(=O)OC(CCCCCCCC)CCCCCCCC)OCC (centres unmarked) [Lipid 11]
- PDI [1]: 0.08
- Size [1]: 94.4 nm
- Zeta [2]: 2.6 mV
- EE [3]: 99.7%
- pKa [4]: 7.3
- hEPO (C57BL/6 female mice): 63.81 ng/mL

Compound: CCCCCCCCC(CC)OC(=O)CCCCCCCN(CCCCCCCC(=O)OC(CCCCCCCC)CCCCCCCC)CCCNc1nnc(N)[nH]1 (centres unmarked) [Lipid 17]
- PDI [1]: 0.169
- Size [1]: 75.1 nm
- Zeta [2]: −14.1 mV
- EE [3]: 98.8%
- pKa [4]: 6.1
- hEPO (C57BL/6 female mice): 6.59 ng/mL

Compound: CCCCCCCCCCCNP(=O)(OCC)OCCCCCN(CCO)CCCCCCCC(=O)OC(CCCCCCCC)CCCCCCCC (centres unmarked) [Lipid 14]
- PDI [1]: 0.248
- Size [1]: 101.5 nm
- Zeta [2]: 0.9 mV
- EE [3]: 98.3%
- pKa [4]: 6.9
- hEPO (C57BL/6 female mice): 33.98 ng/mL

Compound: CCCCCCCCCCCOC(=O)CCCCCN(CCO)CCCCCCCC(=O)OC(CCCCCCCC)CCCCCCCC [SM-102, heptadecan-9-yl 8-((2-hydroxyethyl)(6-oxo-6-(undecyloxy)hexyl)amino)octanoate, reference compound]
- PDI [1]: 0.106
- Size [1]: 78.70 nm
- Zeta [2]: −3.1 mV
- EE [3]: 96.7%
- pKa [4]: 7
- hEPO (C57BL/6 female mice): 2457.05 ng/mL

Compound: CCCCCCCCC(CC)OC(=O)CCCCCCCN(CCCCCCCC(=O)OC(CCCCCCCC)CCCCCCCC)CCCNc1cc(N)n[nH]1 (centres unmarked) [Lipid 22]
- PDI [1]: 0.159
- Size [1]: 62.7 nm
- Zeta [2]: −15.3 mV
- EE [3]: 99.9%
- pKa [4]: 5.8
- hEPO (C57BL/6 female mice): 78.29 ng/mL

Compound: CCCCCCCCC(CC)OC(=O)CCCCCCCN(CCCCCCCC(=O)OC(CCCCCCCC)CCCCCCCC)CCCn1nc(N)cc1N (centres unmarked) [Lipid 18]
- PDI [1]: 0.079
- Size [1]: 67.2 nm
- Zeta [2]: −12.8 mV
- EE [3]: 98.9%
- pKa [4]: 6.5
- hEPO (C57BL/6 female mice): 386.98 ng/mL

Compound: CCCCCCCCC(CC)OC(=O)CCCCCCCN(CCCCCCCC(=O)OC(CCCCCCCC)CCCCCCCC)CCCNS(=O)(=O)NC (centres unmarked) [Lipid 19]
- PDI [1]: 0.183
- Size [1]: 60.9 nm
- Zeta [2]: −27.6 mV
- EE [3]: 96.9%
- pKa [4]: 6.3
- hEPO (C57BL/6 female mice): 1014.79 ng/mL

Compound: CCCCCCCCCCNP(=O)(OCC)OCCCCCN(CCO)CCCCCCCC(=O)OC(CCCCCCCC)CCCCCCCC (centres unmarked) [Lipid 15]
- PDI [1]: 0.165
- Size [1]: 83.1 nm
- Zeta [2]: 0.2 mV
- EE [3]: 94.8%
- pKa [4]: 7.0
- hEPO (C57BL/6 female mice): 123.69 ng/mL

Compound: CCCCCCCCCCOP(=O)(NCCCCCN(CCO)CCCCCCCC(=O)OC(CCCCCCCC)CCCCCCCC)OCC (centres unmarked) [Lipid 10]
- PDI [1]: 0.064
- Size [1]: 85.6 nm
- Zeta [2]: 0.8 mV
- EE [3]: 99.6%
- pKa [4]: 7.2
- hEPO (C57BL/6 female mice): 90.05 ng/mL

Compound: CCCCCCCCCCCCCCOC(=O)CCN(CCO)CCCCCCCC(=O)OC(CCCCCCCC)CCCCCCCC [Lipid 1]
- PDI [1]: 0.267
- Size [1]: 65.8 nm
- Zeta [2]: −8.8 mV
- EE [3]: 97.9%
- pKa [4]: 5.1
- hEPO (C57BL/6 female mice): 0.00 ng/mL

Compound: CCCCCCCCCNP(=O)(OCC)OCCCCCN(CCO)CCCCCCCC(=O)OC(CCCCCCCC)CCCCCCCC (centres unmarked) [Lipid 16]
- PDI [1]: 0.116
- Size [1]: 91.6 nm
- Zeta [2]: −0.4 mV
- EE [3]: 88.1%
- pKa [4]: 7.0
- hEPO (C57BL/6 female mice): 79.22 ng/mL

Compound: CCCCCCCCCCCOP(=O)(NCCCCCN(CCO)CCCCCCCC(=O)OC(CCCCCCCC)CCCCCCCC)OCC (centres unmarked) [Lipid 9]
- pKa [4]: 7.0
- hEPO (C57BL/6 female mice): 184.44 ng/mL
